Results reported in paper PMC8476055, “Synthesis and Biological Activity of Triterpene–Coumarin Conjugates” (Journal of Natural Products, 2021).

Key:
[1] = test system: Hep G2 cells; assay: Cell-cycle distribution by PI flow cytometry, Hep G2; type: cell-based, human; settings: Hep G2, 72 h at IC50 concentration
Description: Based on the cytotoxicity shown by derivatives 1, 4, 7, and 10, a study was made concerning their effects on the distribution of the cell cycle in order to determine possible cytostatic effects caused by the cytotoxic response. The percentages of cells in the different phases of the cycle were analyzed at 72 h, by the incorporation of propidium iodide. […] The values of cell percentage were expressed as means ± SEM of at least two independent experiments performed in triplicate. Flow cytometry was also used to measure DNA ploidy and alterations in cell-cycle profiles. The DNA content is proportional to the fluorescence of propidium iodide, enabling the percentage of cells to be determined in each phase of the cycle and the cell subpopulations with different DNA contents to be visualized.
The method used to quantify the amount of DNA in the different phases of the cell cycle (G0/G1, S, and G2/M) was performed by flow cytometry, using a fluorescence-activated cell sorter (FACS) at 488 nm in an Epics XL flow cytometer (Coulter Corporation, Hialeah, FL, USA). For this assay, 5 × 10^4 B16–F10, 6 × 10^4 HT29 cells, and 15 × 10^4 Hep G2 cells were placed in 24-well plates with 1.5 mL of medium and incubated for 24 h. After this time, the cells were treated with the different selected compounds for 72 h at their corresponding IC50 concentrations. After treatment, the cells were washed twice with PBS, trypsinized, and resuspended in 1X TBS (10 mM Tris and 150 mM NaCl); thereafter, Vindelov buffer (100 mM Tris, 100 mM NaCl, 10 mg/mL Rnase, and 1 mg/mL PI, at pH 8) was added. Cells were stored on ice and, just before measurement, were stained with 10 μL of 1 mg/mL PI solution. Approximately, 10 × 10^3 cells were analyzed in each experiment. The experiments were performed three times with two replicates per assay.

[2] = test system: HT29 cells; assay: Mitochondrial-membrane potential (Rh123) flow cytometry, HT29; type: cell-based, human; settings: HT29, 72 h at IC50 concentration
Description: The study of the loss of the mitochondrial-membrane potential (MMP) of tumor cells, when treated with drugs, can provide information on the activation mechanism of apoptosis. This activation can occur extrinsically when MMP is not altered, and intrinsically when a loss of this potential is caused by mitochondrial disruption. […] The values of percentage of cell population were expressed as means ± SEM of at least two experiments in duplicate. Changes in MMP were analyzed by monitoring cell fluorescence after staining with rhodamine 123 (Rh123).
The electrochemical gradient across the mitochondrial membrane was examined by analytical flow cytometry, using dihydrorhodamine (DHR), which in contact with living cells, oxidized to form highly fluorescent rhodamine 123 (Rh123). The fluorescence emitted can be monitored by fluorescence spectroscopy using excitation and emission wavelengths of 500 and 536 nm, respectively. […] Following treatment, the culture medium was renewed with fresh medium by adding 0.5 mL of DHR, for a final concentration of […]. Cells were incubated for 1 h at 37 °C in an atmosphere of 5% CO2 and 95% humidity and subsequently washed and resuspended in PBS. The fluorescence intensity was measured using a FACScan flow cytometer (fluorescence-activated cell sorter). The experiments were performed three times with two replicates per assay.

[3] = test system: IEC-18 normal rat ileum cells; assay: MTT assay, nontumor IEC-18 cells; type: cell-based; settings: Rattus norvegicus, IEC-18; MTT, untreated control = 100% viability; read-out: IC50, growth inhibition of IEC-18 non-tumor cells
From the text: (§1) Only MA conjugates 7 and 10 were selected to compare the growth inhibitory effects in the three nontumor cell lines (HPF, IEC-18, and WRL68) versus the three cancer cell lines (B16–F10, HT29, and Hep G2). Therefore, the cytotoxic effects on B16–F10 murine melanoma cells were compared with those of HPF normal human epithelial lung fibroblasts, with similar tissue. Similarly, the cytotoxic effects of these conjugates on HT29 colon cancer cells and Hep G2 hepatoma cells were compared with those of nontumor cells of the same tissue, such as IEC-18 normal rat ileum cells and WRL68 normal human embryo liver cells, respectively.
(§2) […] ATTC HTB-38), Hep G2 human hepatocyte carcinoma cells (ECACC 85011430), nontumor human epithelial lung fibroblast cells HPF (ScienCell catalog (cat.) no. 3300), nontumor rat ileum cells IEC-18 (ECACC no. 88011801), and nontumor human embryo liver cells (ECACC 89121403) were cultured in DMEM medium supplemented with 2 mM glutamine, 10% heat-inactivated fetal bovine serum (FCS), 10.000 units/mL penicillin, and […]. These cells were incubated at 37 °C in an atmosphere of 5% CO2 and 95% humidity. The culture media were changed every 48 h, and the confluent cultures were separated with a trypsin solution (0.25% EDTA). Subconfluent monolayer cells were used in all experiments. All cell lines used were provided by the cell bank of the University of Granada (Spain).
(§3) The effect of the synthesized compounds on the viability of tumor cells was assessed using an MTT assay, based on the ability of living cells to cleave the tetrazolium ring, thus producing formazan, which absorbs at 570 nm. The MA conjugates (1–12) were assayed against the selected cancer cell lines. For an evaluation of the cytotoxic effects of these compounds, the cells were seeded in 96-well plates at an initial density of 5 × 10^3 B16–F10 cells, 6 × 10^3 HT29 cells, 15 × 10^3 Hep G2 cells, 8 × 10^3 HPF cells, 15 × 10^3 IEC-18 cells, and 11 × 10^3 WRL68 cells, per well. After incubation for 24 h, the cells were treated with the synthesized compounds in triplicate, at different concentrations (0–200 μg/mL), and incubated for 72 h. Thereafter, 100 μL of MTT solution (0.5 mg/mL) were added to each well. After 2 h of incubation, the cells were washed twice with phosphate buffered saline (PBS), and the formazan was resuspended in 100 μL of DMSO. Relative cell viability, with respect to untreated control cells, was measured by absorbance at 550 nm on an ELISA plate reader (Tecan Sunrise MR20-301, TECAN, Austria). […] These experiments were measured and compared to the control after 72 h of treatment.

[4] = MTT assay, nontumor IEC-18 cells; type: cell-based, rat; settings: rat, IEC-18 normal ileum cells; at the compound's IC50 concentration for HT29 cancer cells
From the text: as §1, §2, §3

[5] = test system: HPF normal human epithelial lung fibroblasts; assay: MTT assay, nontumor HPF cells; type: cell-based; settings: Homo sapiens, Fibroblast; MTT, untreated control = 100% viability; read-out: IC50, growth inhibition of HPF non-tumor cells
From the text: as §1, §2, §3

[6] = MTT assay, nontumor HPF cells; type: cell-based, human; settings: human, HPF normal lung fibroblast cells; at the compound's IC50 concentration for B16–F10 cancer cells; read-out: percent viability (% viability) of HPF cells
From the text: as §1, §2, §3

[7] = MTT assay, statements over the three nontumor cell lines; type: cell-based; settings: human, rat, at the IC50 concentration of the respective cancer cell line; over HPF, IEC-18, WRL68; read-out: cell viability percentage of nontumor cells
From the text: as §1
The effect of the synthesized compounds on the viability of tumor cells was assessed using an MTT assay, based on the ability of living cells to cleave the tetrazolium ring, thus producing formazan, which absorbs at 570 nm. The MA conjugates (1–12) were assayed against the selected cancer cell lines. […] Relative cell viability, with respect to untreated control cells, was measured by absorbance at 550 nm on an ELISA plate reader (Tecan Sunrise MR20-301, TECAN, Austria). […] These experiments were measured and compared to the control after 72 h of treatment.

| Structure (SMILES) | percentage of cells in the G0/G1 phase [1] | Rh123 staining (mitochondrial-membrane potential) [2] | IC50 [3] [µM] | viability at 72 h [4] [%] | IC50 [5] [µM] | viability at 72 h [6] [%] | viability at 72 h [7] [%] |
| --- | --- | --- | --- | --- | --- | --- | --- |
| CC1(C)CC[C@]2(C(=O)NCCCNC(=O)c3cc4ccccc4oc3=O)CC[C@]3(C)C(=CC[C@@H]4[C@@]5(C)C[C@@H](O)[C@H](O)C(C)(C)[C@@H]5CC[C@]43C)[C@@H]2C1 [Compound 1, 2α,3β-Dihydroxy-N-(3′-(2″-oxo-2″H-chromene-3″-carboxamido)propyl)olean-12-en-28-amide] | greater than 70% | positive Rh123 staining | – | – | – | – | – |
| CC1(C)CC[C@]2(C(=O)NCCCNC(=O)Cc3cc(=O)oc4cc(O)ccc34)CC[C@]3(C)C(=CC[C@@H]4[C@@]5(C)C[C@@H](O)[C@H](O)C(C)(C)[C@@H]5CC[C@]43C)[C@@H]2C1 [Compound 4, 2α,3β-Dihydroxy-N-(3′-(2″-(7‴-hydroxy-2‴-oxo-2‴H-chromen-4‴-yl)acetamido)propyl)olean-12-en-28-amide] | greater than 70% | positive Rh123 staining | – | – | – | – | – |
| CC1(C)CC[C@]2(C(=O)NCCCNC(=O)/C=C/c3ccc(O)cc3)CC[C@]3(C)C(=CC[C@@H]4[C@@]5(C)C[C@@H](O)[C@H](O)C(C)(C)[C@@H]5CC[C@]43C)[C@@H]2C1 [Compound 7, 2α,3β-Dihydroxy-N-(3′-((E)-3″-(4‴-hydroxyphenyl)acrylamido)propyl)olean-12-en-28-amide] | greater than 70% | positive Rh123 staining | 19.6 ± 0.3 | 88 ± 0.6 | 38.8 ± 1.3 | 76.9 ± 2.9 | 61 to 88 |
| CC1(C)CC[C@]2(C(=O)O)CC[C@]3(C)C(=CC[C@@H]4[C@@]5(C)C[C@@H](OC(=O)c6cc7ccccc7oc6=O)[C@H](OC(=O)c6cc7ccccc7oc6=O)C(C)(C)[C@@H]5CC[C@]43C)[C@@H]2C1 [Compound 10] | greater than 70% | positive Rh123 staining | 7.4 ± 0.7 | 89.3 ± 2.2 | 24.5 ± 1.9 | 92.9 ± 2.9 | 90 |
